# Experimental data taken from patent US11230526B1, “Cylcoalkenyl derivatives useful as agonists of the GPR120 and/or GPR40 receptors” (Janssen Pharmaceutica NV, priority 2018, dated 2022).
# Columns and labels:
# Type in all cases: cell-based
# [1] = target: T1, long form of human GPR120 (Homo sapiens, UniProt Q5NUL3); test: Human GPR120 DiscoveRx PathHunter Beta-Arrestin assay, Procedure β-arrestin A
# T1 construct: host or cells: PathHunter CHO-K1 GPR120 β-Arrestin Cell Line
# Source text: Human GPR120 DiscoveRx PathHunter® Beta-Arrestin Assay Assay Principle:
# The binding of an agonist (medium/long chain fatty acids or small molecule agonists) to the G-protein-coupled receptor GPR120 activates phospholipase C, leading to release of intracellular Ca^+2 through the generation of inositol 1,4,5-trisphosphate (InsP3 or IP3). GPR120 activation can also trigger intracellular signaling via recruitment of Beta-Arrestin. In the present method, agonist-induced activation of the human GPR120 receptor is monitored through the use of PathHunter® CHO-K1 GPR120 Beta-Arrestin Cell Line engineered by DiscoveRx, as detailed below. The cell lines are designed to co-express both the ProLink/Enzyme Donor (PK)-tagged GPCR and the Enzyme […] (EA)-tagged Beta-Arrestin fusion proteins. Upon GPR120 receptor stimulation/activation, the EA-tagged Beta-Arrestin portion is translocated to the tagged receptor, where the two enzyme fragments are brought within close proximity. Under these conditions, these fragments can interact and form an active Beta-gal enzyme complex through Enzyme Fragment Complementation (EFC). This active Beta-gal complex can enzymatically hydrolyse the substrate to produce a detectable light signal; therefore, activation as a function of agonist concentration can be expressed as an EC50 value to determine relative compound activities. This in vitro assay therefore serves to assess compound agonist activity of the GPR120.
# In Procedure β-arrestin A, the cell used were PathHunter® CHO-K1 GPR120 β-Arrestin Cell Line, expressing the long form of human GPR120 (Genbank accession number NM_181745), with 3000 cells per well.
# The selected CHO-K1 GPR120 β-Arrestin cells were cultured in Ham's F12 media supplemented with 10% fetal bovine serum (FBS), 1% Glutamine, 1×p/s, 800 μg/mL G418 and 300 μg/mL Hygromycin B (for selection). Cell stocks were maintained and grown in a sub-confluent state using standard cell culture procedures. The day before the experiment, the cells were harvested with non-enzymatic cell dissociation buffer and re-suspended in complete growth media at the desired concentration. A Corning 384-plate was then seeded with the proper number of cells in a volume of 25 μL, per well. The seeded plates were incubated overnight at 37° C.
# On the day of the experiment, the Assay Buffer containing (a) HBSS with Ca^++ and Mg^++, (b) 20 mM HEPES, and (c) 0.1% BSA stabilizer (pH 7.4) was prepared. The growth medium was gently removed from the cell plates and 20 μL of Assay Buffer added to each well. The plate was then incubated at 37° C. for 60 min. Test compounds were serially diluted in Assay Buffer to desired concentrations (more particularly to one or more of the following μM concentrations: 25, 12.5, 6.25, 3.12, 1.56, 0.78, 0.39, 0.19, 0.10, 0.05, 0.02, 0.01). Five μL of compound dilution was then added to each well and the plate incubated at 37° C. for 90 min. The detection reagents were prepared according to the manufacture's instruction. Twelve μL of the detection reagents were added to each well and the plate incubated at room temperature for 60 min.
# The plates were read on an EnVision instrument, using Protocol name: Luminescence, Plate type: 384 Costar, Measurement height: 3 mm, Measurement time: 1 s, Aperture: 384 Plate aperture. The % Activity relative to the positive control was calculated using the following equation:
# The % Activity values were plotted versus the concentration of test compound and fitted to a sigmoidal dose-response curve with a Hill slope=1 (fixed value) using nonlinear regression with GraphPad Prism 5.0 to calculate the EC50 values. The Fitting Equation was: Y=Bottom+(Top-Bottom)/(1+10^((Log EC50−X)*HillSlope)), where X is the log of the concentration and Y is the response.
# Human GPR120 short form = target: T2, Human GPR120 short form (Homo sapiens, UniProt Q5NUL3); test: Human GPR120 calcium flux assay, Procedure Calcium B (4200 cells/well)
# T2 construct: expressed in transfected cells
# T2 sequence (Q5NUL3 1-361): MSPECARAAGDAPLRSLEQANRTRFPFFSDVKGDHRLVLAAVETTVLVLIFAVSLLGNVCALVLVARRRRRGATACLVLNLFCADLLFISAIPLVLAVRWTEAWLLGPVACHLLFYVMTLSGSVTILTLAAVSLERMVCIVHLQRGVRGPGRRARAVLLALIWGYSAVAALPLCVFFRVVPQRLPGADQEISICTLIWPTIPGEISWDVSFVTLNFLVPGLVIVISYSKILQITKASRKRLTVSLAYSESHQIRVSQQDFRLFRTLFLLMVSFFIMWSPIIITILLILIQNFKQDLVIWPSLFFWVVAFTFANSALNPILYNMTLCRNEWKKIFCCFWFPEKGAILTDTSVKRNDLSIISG
# In short: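 Agonist EC50 came from a four-parameter fit of RFU (Fmax−Fmin) read over 300 s on FLIPR. Cells were HEK293 stably transfected with human GPR120 (NM_001195755.1) at 4200 per well, serum-starved 1 h and loaded with Fluo-4 NW dye with probenecid before ligand addition.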
# human GPR40 = target: T3, human GPR40 (Homo sapiens, UniProt O14842); test: GPR40 calcium flux assay, human GPR40; settings: HEK293 cells stably expressing GPR40; table does not say human or rat
# T3 construct: expressed in transfected cells
# T3 sequence (O14842 whole entry): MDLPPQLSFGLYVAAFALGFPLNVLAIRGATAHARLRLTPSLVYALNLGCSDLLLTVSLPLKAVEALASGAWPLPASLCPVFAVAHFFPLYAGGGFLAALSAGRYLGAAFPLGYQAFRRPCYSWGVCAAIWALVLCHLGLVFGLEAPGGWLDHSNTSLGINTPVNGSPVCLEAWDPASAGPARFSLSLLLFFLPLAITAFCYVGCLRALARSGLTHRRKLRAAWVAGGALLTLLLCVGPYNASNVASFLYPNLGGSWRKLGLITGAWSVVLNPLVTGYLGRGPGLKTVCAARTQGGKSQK
# In short: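 Cells preincubated 1 h at 37° C. in HBSS, 20 mM HEPES, 0.1% BSA, then Fluo 8 calcium dye 30 min at 37° C. and 15 min at room temperature.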
# T1 sequence (Q5NUL3 1-377 isoform Q5NUL3-1): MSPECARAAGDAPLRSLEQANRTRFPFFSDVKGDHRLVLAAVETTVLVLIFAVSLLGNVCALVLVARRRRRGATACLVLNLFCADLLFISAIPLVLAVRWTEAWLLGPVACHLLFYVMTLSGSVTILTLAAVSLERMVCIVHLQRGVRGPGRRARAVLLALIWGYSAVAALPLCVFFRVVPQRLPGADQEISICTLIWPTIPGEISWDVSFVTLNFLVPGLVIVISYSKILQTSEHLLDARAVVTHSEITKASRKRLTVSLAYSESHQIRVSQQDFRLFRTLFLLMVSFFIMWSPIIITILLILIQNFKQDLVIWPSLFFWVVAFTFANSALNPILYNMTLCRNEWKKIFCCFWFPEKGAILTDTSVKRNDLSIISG
# T1 sequence (P32121 whole entry partner): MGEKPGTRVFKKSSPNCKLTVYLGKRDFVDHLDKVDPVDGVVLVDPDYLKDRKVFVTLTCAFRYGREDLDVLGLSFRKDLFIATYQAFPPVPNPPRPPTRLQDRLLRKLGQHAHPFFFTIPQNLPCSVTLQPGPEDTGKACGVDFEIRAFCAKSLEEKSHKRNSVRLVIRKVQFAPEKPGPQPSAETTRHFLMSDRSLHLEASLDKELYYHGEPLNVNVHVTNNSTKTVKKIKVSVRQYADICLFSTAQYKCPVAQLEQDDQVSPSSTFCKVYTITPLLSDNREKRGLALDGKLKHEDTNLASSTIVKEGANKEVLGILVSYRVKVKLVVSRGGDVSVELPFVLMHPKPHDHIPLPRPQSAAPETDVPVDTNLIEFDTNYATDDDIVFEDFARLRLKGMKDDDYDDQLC
smiles,measurement,setting,value
"Cc1cc(CCC(=O)O)ccc1OCC1=C(c2ccc(Cl)cc2)CC(F)(F)CC1 [Compound 566, 3-[4-[[2-(4-chlorophenyl)-4,4-difluoro-cyclohexen-1-yl]methoxy]-3-methyl-phenyl]Propanoic Acid]",EC50,[1],209 nM
same,EC50,Human GPR120 short form,165 nM
same,EC50,human GPR40,3340 nM
"Cc1ncc(C2=C(COc3ccc(CCC(=O)O)cc3C)CC(F)(F)C2)s1 [Compound 199, 3-[4-[[4,4-difluoro-2-(2-methylthiazol-5-yl)cyclopenten-1-yl]methoxy]-3-methyl-phenyl]Propanoic Acid]",EC50,[1],369 nM
same,EC50,Human GPR120 short form,210 nM
same,EC50,human GPR40,1470 nM
"Cc1cc(CCC(=O)O)cc(F)c1OCC1=C(c2ccc(F)cc2)CC(F)(F)C1 [Compound 204, 3-[4-[[4,4-difluoro-2-(4-fluorophenyl)cyclopenten-1-yl]methoxy]-3-fluoro-5-methyl-phenyl]Propanoic Acid]",EC50,[1],359 nM
same,EC50,Human GPR120 short form,125 nM
same,EC50,human GPR40,> 5000 nM
"CC(C)c1cc(OCC2=C(c3ccc(Cl)cc3)CCC2)ccc1CCC(=O)O [Compound 167, 3-[4-[[2-(4-chlorophenyl)cyclopenten-1-yl]methoxy]-2-isopropyl-phenyl]Propanoic Acid]",EC50,[1],727 nM
same,EC50,Human GPR120 short form,503 nM
same,EC50,human GPR40,1250 nM
"COc1ncc(C2=C(COc3ccc(CCC(=O)O)c(C)c3C)CCC2)cc1F [Compound 223, 3-[4-[[2-(5-fluoro-6-methoxy-3-pyridyl)cyclopenten-1-yl]methoxy]-2,3-dimethyl-phenyl]Propanoic Acid]",EC50,[1],227 nM
same,EC50,Human GPR120 short form,156 nM
same,EC50,human GPR40,> 5000 nM
"O=C(O)CCc1ccc(OCC2=C(c3ccc(Cl)cc3)CCC2)cc1Cl [Compound 143, 3-[2-chloro-4-[[2-(4-chlorophenyl)cyclopenten-1-yl]methoxy]phenyl]Propanoic Acid]",EC50,[1],466 nM
same,EC50,human GPR40,365 nM
"O=C(O)CCc1ccc(OCC2=C(c3ccc(F)cc3)CC(F)(F)C2)cc1 [Compound 228, 3-[4-[[4,4-difluoro-2-(4-fluorophenyl)cyclopenten-1-yl]methoxy]phenyl]Propanoic Acid]",EC50,[1],238 nM
same,EC50,Human GPR120 short form,124 nM
same,EC50,human GPR40,4930 nM
"CC(Cc1ccc(OCC2=C(c3ccc(Cl)cc3)CCC2)c(F)c1)C(=O)O (centres unmarked) [Compound 34, 3-[4-[[2-(4-chlorophenyl)cyclopenten-1-yl]methoxy]-3-fluoro-phenyl]-2-methyl-Propanoic Acid]",EC50,[1],680 nM
same,EC50,human GPR40,> 5000 nM
"Cc1cc(CCC(=O)O)ccc1OCC1=C(c2cnn(C)c2)CCC(F)(F)C1 [Compound 546, 3-[4-[[5,5-difluoro-2-(1-methylpyrazol-4-yl)cyclohexen-1-yl]methoxy]-3-methyl-phenyl]Propanoic Acid]",EC50,[1],1650 nM
same,EC50,Human GPR120 short form,754 nM
same,EC50,human GPR40,2350 nM
Cc1c(CCC(=O)O)cc(Br)c(OCC2=C(c3ccc(Cl)cc3)CCC2)c1Br [Compound 68],EC50,[1],1940 nM
same,EC50,Human GPR120 short form,517 nM
same,EC50,human GPR40,> 5000 nM
"Cc1cc(CCC(=O)O)ccc1OCC1=C(c2ccc(F)c(F)c2)CCC(F)(F)C1 [Compound 532, 3-[4-[[2-(3,4-difluorophenyl)-5,5-difluoro-cyclohexen-1-yl]methoxy]-3-methyl-phenyl]Propanoic Acid]",EC50,[1],187 nM
same,EC50,Human GPR120 short form,133 nM
same,EC50,human GPR40,> 5000 nM
"Cc1cc(CC(C)C(=O)O)ccc1OCC1=C(c2ccc(Cl)cc2)CCC1 (centres unmarked) [Compound 36, 3-[4-[[2-(4-chlorophenyl)cyclopenten-1-yl]methoxy]-3-methyl-phenyl]-2-methyl-Propanoic Acid]",EC50,[1],235 nM
same,EC50,Human GPR120 short form,193 nM
same,EC50,human GPR40,> 5000 nM
"CCc1cc(OCC2=C(c3ccc(Cl)cc3)CCC2)ccc1CCC(=O)O [Compound 161, 3-[4-[[2-(4-chlorophenyl)cyclopenten-1-yl]methoxy]-2-ethyl-phenyl]Propanoic Acid]",EC50,[1],680 nM
same,EC50,human GPR40,401 nM
"O=C(O)CCc1ccc(OCC2=C(c3ccc(Cl)cc3)CCC2)cc1-c1ccccc1 [Compound 136, 3-[4-[[2-(4-chlorophenyl)cyclopenten-1-yl]methoxy]-2-phenyl-phenyl]Propanoic Acid]",EC50,[1],788 nM
same,EC50,human GPR40,> 5000 nM
"Cc1c(CCC(=O)O)ccc(OCC2=C(c3ccc(Cl)cc3)CC(Cl)C2)c1C (centres unmarked) [Compound 195, 3-[4-[[4-chloro-2-(4-chlorophenyl)cyclopenten-1-yl]methoxy]-2,3-dimethyl-phenyl]Propanoic Acid]",EC50,[1],466 nM
same,EC50,Human GPR120 short form,228 nM
"Cc1cc(CCC(=O)O)ccc1OCC1=C(c2ccco2)CCC(F)(F)C1 [Compound 555, 3-[4-[[5,5-difluoro-2-(2-furyl)cyclohexen-1-yl]methoxy]-3-methyl-phenyl]Propanoic Acid]",EC50,[1],358 nM
same,EC50,Human GPR120 short form,164 nM
"Cc1ccc(C2=C(COc3ccc(CCC(=O)O)cc3Br)CCC2)cc1 [Compound 169, 3-[3-bromo-4-[[2-(p-tolyl)cyclopenten-1-yl]methoxy]phenyl]Propanoic Acid]",EC50,[1],35 nM
same,EC50,Human GPR120 short form,49 nM
"Cc1ccc(C2=C(COc3ccc(CCC(=O)O)c(C)c3C)CC(F)(F)CC2)s1 [Compound 564, 3-[4-[[5,5-difluoro-2-(5-methyl-2-thienyl)cyclohexen-1-yl]methoxy]-2,3-dimethyl-phenyl]Propanoic Acid]",EC50,[1],176 nM
same,EC50,Human GPR120 short form,90 nM
"COC1CC(COc2ccc(CCC(=O)O)c(C)c2C)=C(c2ccc(Cl)cc2)C1 (centres unmarked) [Compound 189, 3-[4-[[2-(4-chlorophenyl)-4-methoxy-cyclopenten-1-yl]methoxy]-2,3-dimethyl-phenyl]Propanoic Acid]",EC50,[1],245 nM
same,EC50,Human GPR120 short form,63 nM
"O=C(O)CCc1cc(F)c(OCC2=C(c3cccs3)CC(F)(F)C2)c(F)c1 [Compound 201, 3-[4-[[4,4-difluoro-2-(2-thienyl)cyclopenten-1-yl]methoxy]-3,5-difluoro-phenyl]Propanoic Acid]",EC50,[1],408 nM
same,EC50,Human GPR120 short form,792 nM
"COC1CCC(c2ccc(Cl)cc2)=C(COc2ccc(CCC(=O)O)c(C)c2C)C1 (centres unmarked) [Compound 540, 3-[4-[[2-(4-chlorophenyl)-5-methoxy-cyclohexen-1-yl]methoxy]-2,3-dimethyl-phenyl]Propanoic Acid]",EC50,[1],222 nM
same,EC50,Human GPR120 short form,151 nM
"Cc1cc(CCC(=O)O)ccc1OCC1=C(c2cccs2)CC(F)(F)C1 [Compound 202, 3-[4-[[4,4-difluoro-2-(2-thienyl)cyclopenten-1-yl]methoxy]-3-methyl-phenyl]Propanoic Acid]",EC50,[1],303 nM
same,EC50,Human GPR120 short form,114 nM
"Cc1c(CCC(=O)O)ccc(OCC2=C(c3ccccc3)CC(F)(F)C2)c1C [Compound 194, 3-[4-[(4,4-difluoro-2-phenyl-cyclopenten-1-yl)methoxy]-2,3-dimethyl-phenyl]Propanoic Acid]",EC50,[1],161 nM
same,EC50,Human GPR120 short form,36 nM
